# Earlier results as cited in patent EP0211258A2, “Microemulsion compositions” (ABBOTT LABORATORIES, priority 1985, dated 1987).
# Settings: commonly employed aqueous solutions, 2.5%, w/v
structure (smiles),measurement,value
CCCC(C)C1(CC)C(=O)NC(=S)NC1=O (stereo not shown) [thiopental sodium],pH,10.5
